Source: the NIST ThermoML archive (doi:10.1021/acs.jced.8b00438)

Test: xn = mol fraction of the nth substance listed
Conditions: 100 kPa, Liquid; for viscosity: Falling or rolling sphere viscometry; for mass density: Vibrating tube method

C1CCC(C2CCCCC2)CC1 [1,1'-bicyclohexyl] + CCCCO
Conditions | mass density [kg/m3] | viscosity [mPa·s]
293.15 K, x1 = 0.1007 | 823.66 | 2.853
293.15 K, x1 = 0.2009 | 835.23 | 2.878
293.15 K, x1 = 0.3021 | 845.04 | 2.902
293.15 K, x1 = 0.4007 | 853.19 | 2.957
293.15 K, x1 = 0.5038 | 860.51 | 3.002
293.15 K, x1 = 0.5992 | 866.48 | 3.096
293.15 K, x1 = 0.7006 | 872.11 | 3.227
293.15 K, x1 = 0.7983 | 877.03 | 3.418
293.15 K, x1 = 0.8835 | 880.86 | 3.575
293.15 K, x1 = 1 | 886.05 | 4.003
298.15 K, x1 = 0.1007 | 819.86 | 2.507
298.15 K, x1 = 0.2009 | 831.42 | 2.527
298.15 K, x1 = 0.3021 | 841.24 | 2.548
298.15 K, x1 = 0.4007 | 849.39 | 2.603
298.15 K, x1 = 0.5038 | 856.73 | 2.648
298.15 K, x1 = 0.5992 | 862.71 | 2.734
298.15 K, x1 = 0.7006 | 868.37 | 2.851
298.15 K, x1 = 0.7983 | 873.33 | 3.02
298.15 K, x1 = 0.8835 | 877.19 | 3.158
298.15 K, x1 = 1 | 882.44 | 3.53
303.15 K, x1 = 0.1007 | 816.02 | 2.214
303.15 K, x1 = 0.2009 | 827.58 | 2.232
303.15 K, x1 = 0.3021 | 837.4 | 2.254
303.15 K, x1 = 0.4007 | 845.56 | 2.306
303.15 K, x1 = 0.5038 | 852.92 | 2.353
303.15 K, x1 = 0.5992 | 858.93 | 2.431
303.15 K, x1 = 0.7006 | 864.61 | 2.539
303.15 K, x1 = 0.7983 | 869.6 | 2.689
303.15 K, x1 = 0.8835 | 873.49 | 2.807
303.15 K, x1 = 1 | 878.84 | 3.137
308.15 K, x1 = 0.1007 | 812.14 | 1.963
308.15 K, x1 = 0.2009 | 823.71 | 1.982
308.15 K, x1 = 0.3021 | 833.53 | 2.006
308.15 K, x1 = 0.4007 | 841.7 | 2.054
308.15 K, x1 = 0.5038 | 849.08 | 2.102
308.15 K, x1 = 0.5992 | 855.12 | 2.179
308.15 K, x1 = 0.7006 | 860.84 | 2.273
308.15 K, x1 = 0.7983 | 865.87 | 2.411
308.15 K, x1 = 0.8835 | 869.8 | 2.513
308.15 K, x1 = 1 | 875.25 | 2.81
313.15 K, x1 = 0.1007 | 808.22 | 1.749
313.15 K, x1 = 0.2009 | 819.81 | 1.767
313.15 K, x1 = 0.3021 | 829.63 | 1.793
313.15 K, x1 = 0.4007 | 837.81 | 1.84
313.15 K, x1 = 0.5038 | 845.22 | 1.881
313.15 K, x1 = 0.5992 | 851.3 | 1.957
313.15 K, x1 = 0.7006 | 857.05 | 2.048
313.15 K, x1 = 0.7983 | 862.13 | 2.17
313.15 K, x1 = 0.8835 | 866.09 | 2.262
313.15 K, x1 = 1 | 871.66 | 2.532
318.15 K, x1 = 0.1007 | 804.27 | 1.563
318.15 K, x1 = 0.2009 | 815.86 | 1.582
318.15 K, x1 = 0.3021 | 825.69 | 1.61
318.15 K, x1 = 0.4007 | 833.9 | 1.656
318.15 K, x1 = 0.5038 | 841.34 | 1.704
318.15 K, x1 = 0.5992 | 847.45 | 1.769
318.15 K, x1 = 0.7006 | 853.25 | 1.853
318.15 K, x1 = 0.7983 | 858.37 | 1.966
318.15 K, x1 = 0.8835 | 862.38 | 2.047
318.15 K, x1 = 1 | 868.08 | 2.296
323.15 K, x1 = 0.1007 | 800.27 | 1.402
323.15 K, x1 = 0.2009 | 811.87 | 1.423
323.15 K, x1 = 0.3021 | 821.71 | 1.452
323.15 K, x1 = 0.4007 | 829.95 | 1.498
323.15 K, x1 = 0.5038 | 837.43 | 1.545
323.15 K, x1 = 0.5992 | 843.58 | 1.608
323.15 K, x1 = 0.7006 | 849.43 | 1.685
323.15 K, x1 = 0.7983 | 854.6 | 1.789
323.15 K, x1 = 0.8835 | 858.66 | 1.863
323.15 K, x1 = 1 | 864.5 | 2.092
328.15 K, x1 = 0.1007 | 796.21 | 1.263
328.15 K, x1 = 0.2009 | 807.82 | 1.285
328.15 K, x1 = 0.3021 | 817.69 | 1.315
328.15 K, x1 = 0.4007 | 825.97 | 1.36
328.15 K, x1 = 0.5038 | 833.49 | 1.407
328.15 K, x1 = 0.5992 | 839.69 | 1.466
328.15 K, x1 = 0.7006 | 845.59 | 1.54
328.15 K, x1 = 0.7983 | 850.82 | 1.635
328.15 K, x1 = 0.8835 | 854.93 | 1.702
328.15 K, x1 = 1 | 860.93 | 1.915
333.15 K, x1 = 0.1007 | 792.1 | 1.141
333.15 K, x1 = 0.2009 | 803.73 | 1.164
333.15 K, x1 = 0.3021 | 813.63 | 1.196
333.15 K, x1 = 0.4007 | 821.94 | 1.24
333.15 K, x1 = 0.5038 | 829.52 | 1.286
333.15 K, x1 = 0.5992 | 835.77 | 1.342
333.15 K, x1 = 0.7006 | 841.73 | 1.411
333.15 K, x1 = 0.7983 | 847.02 | 1.499
333.15 K, x1 = 0.8835 | 851.2 | 1.562
333.15 K, x1 = 1 | 857.35 | 1.762
